Consider five molecules from patent publication US8940770B2, “Nitropyridinyl ethyleneimine compound, the pharmaceutical composition containing it, the preparation method and use thereof” (Beijing Yiling Bioengineering Co., Ltd, priority 2008, dated 2015).

The structures appear in SMILES notation. Read-outs that look alike come from different tables or passages of the source.

Series [1] concerns human non-small cell lung cancer cell line A549. Kind of series: SRB cell viability assay, wild-type A549, normoxic and hypoxic drug treatment. The conditions noted are these: for IC50: Homo sapiens, 4 h drug treatment, then 4 days normoxic culture, SRB, mean ± SD; for HCR O2/N2 (WT): wild-type A549, HCR = IC50 in normoxia/IC50 in hypoxia. The class given is cell-based. As to the method: (§1) Tumor cell strain: human non-small cell lung cancer cell line A549.
(§2) Reagent system: SRB, transfection kit
(§3) The cell strains/the cypor transfected cell strains were subject to normoxic and hypoxic cultivations respectively. Then, the cell vitality was analyzed by SRB assay and IC50 values were calculated. At last, the ratio of IC50 values in normoxia and in hypoxia (hypoxic cytotoxicity ratio, HCR) was calculated.
(§4) Both the human non-small cell lung cancer cell line A549 and the cypor transfected cell strains were cultivated in F12 cultivation medium containing 10% fetal bovine serum at 37° C. and in 5% CO2
(§5) The concentration gradient for the drug was set as 10^−3, 10^−4, 10^−5, 10^−6, and 10^−7 mol/L.
(§6) The crystallized powder of the active ingredient was dissolved in DMSO and formulated into a stock solution having a concentration which was 100 times of the maximal administrated concentration of the drug. The administrated concentrations of the drug could be prepared by directly diluting the stock solution with the corresponding serum-free cultivation medium.
(§7) the stock solution was stored at −80° C. in a refrigerator and the solutions of the drug to be administrated were prepared immediately before use.
(§8) The cell in the exponential growth phase was adjusted to a cell density of 1.0×10^5/ml and seeded into a 96-well plate at 100 μl per well. The drug was added under the normoxic and hypoxic condition respectively, according to the experimental grouping, and each of treatments using the drug lasted for 4 h.
(§9) After treatment using the drug was completed, the treated cells were normally cultivated under a normoxic condition for 4 days and then the cell survival rate was assayed by SRB. IC50 was calculated according to the equation of Lg IC50=Σ(Xi+Xi+1)(Pi+1−Pi)/2. Hypoxia cytotoxicity ratio (HCR) was obtained through dividing IC50 value in normoxia by IC50 value in hypoxia. The greater the HCR value is, the stronger the hypoxic selectivity of the drug will be.
(§10) All of the data were statistically analyzed using the software SPSS 11.5, the results were expressed as a mean±standard deviation ( X±SD), the inter-group difference was tested with the program One-Way ANOVA, P<0.05 means a statistically significant difference.

Series [2] deals with A549 transfected with human cytochrome P450 reducease (CYPOR). Kind of series: cells. In kind it is cell-based. The conditions noted are these: for IC50: Homo sapiens. As to the method: as §1, §2, §3, §4, §5, §6, §7, §8, §9, §10
Where [3] appears, read: wild-type A549, hypoxia (N2), read-out: IC50 N2 (WT).
Setting [4] is: wild-type A549, normoxia (O2), read-out: IC50 O2 (WT).
The mark [5] stands for this setting: A549, read-out: IC50 N2 (CYPOR).
Where [6] appears, read: A549, read-out: IC50 O2 (CYPOR).

Regarding `NC(=O)c1ccnc(N2CC2)c1[N+](=O)[O-]` [Compound II, 2-(1-ethyleneimine)-4-carbamoyl-3-nitropyridine], the melting point – broadly, the temperature of the solid-liquid transition – is 170 °C (dec.). In series [1] (setting [3]), the half-maximal inhibitory concentration (IC50) (commonly the concentration needed to halve the response being measured) was 15.5 ± 2.67 µM. The IC50 in series [1] (setting [4]) was 198 ± 5.04 µM. Moreover, the “HCR O2/N2 (WT)” value in series [1] worked out at 12.8 ± 2.87. In series [2], the “HCR O2/N2 (CYPOR)” value came to 52.5 ± 3.51. For the same molecule, the 50% inhibitory concentration (IC50) in series [2] (setting [5]) came to 2.7 ± 0.58 µM. Further, the half-inhibitory concentration (IC50) in series [2] (setting [6]) stood at 142 ± 10.1 µM.
Take `NC(=O)c1cnc(N2CC2)c([N+](=O)[O-])c1` [Compound III, 2-(1-ethyleneimine)-5-carbamoyl-3-nitropyridine]: the melting point was 150 °C (dec.). In addition, the IC50 in series [1] (setting [3]) amounted to 13.5 ± 3.2 µM. Besides, the IC50 in series [1] (setting [4]) was 257 ± 4.83 µM. Also, the “HCR O2/N2 (WT)” value in series [1] came out at 19.0 ± 3.91. For the same molecule, in series [2], the “HCR O2/N2 (CYPOR)” value was 62.0 ± 8.32. For the same molecule, the IC50 in series [2] (setting [5]) amounted to 2.3 ± 0.27 µM. Besides, the IC50 in series [2] (setting [6]) worked out at 143 ± 9.96 µM.
For `NC(=O)c1cc([N+](=O)[O-])cnc1N1CC1` [Compound IV, 2-(1-ethyleneimine)-3-carbamoyl-5-nitropyridine], the melting point was 160 °C (dec.). In series [1] (setting [3]), the concentration for half-maximal inhibition (IC50) was determined as 56.6 ± 7.17 µM. In series [1] (setting [4]), the IC50 amounted to 317.2 ± 2.79 µM. In series [1], the “HCR O2/N2 (WT)” value is on record as 5.6 ± 2.73. For the same molecule, the “HCR O2/N2 (CYPOR)” value in series [2] was determined as 21.3 ± 4.56. For the same molecule, the IC50 in series [2] (setting [5]) stood at 9.3 ± 3.2 µM. Further, the IC50 in series [2] (setting [6]) stood at 198 ± 24.9 µM.
`NC(=O)c1ccc([N+](=O)[O-])c(N2CC2)n1` [Compound V, 2-(1-ethyleneimine)-6-carbamoyl-3-nitropyridine]: the melting point is 170 °C (dec.). In series [1] (setting [3]), the concentration for half-maximal inhibition (IC50) turned out to be 9.4 ± 2.65 µM. In series [1] (setting [4]), the IC50 was 79.3 ± 4.77 µM. For the same molecule, the “HCR O2/N2 (WT)” value in series [1] came to 8.4 ± 3.56. Besides, the “HCR O2/N2 (CYPOR)” value in series [2] is 35.9 ± 9.15. The half-inhibitory concentration (IC50) in series [2] (setting [5]) turned out to be 1.7 ± 0.38 µM. The IC50 in series [2] (setting [6]) was found to be 61 ± 7.11 µM.
As for `NC(=O)c1cc(N2CC2)ncc1[N+](=O)[O-]` [Compound VI, 2-(1-ethyleneimine)-4-carbamoyl-5-nitropyridine], the melting point is 170 °C (dec.). Besides, the IC50 in series [1] (setting [3]) was 5.5 ± 1.6 µM. In addition, the half-inhibitory concentration (IC50) in series [1] (setting [4]) is 137 ± 7.34 µM. Further, the “HCR O2/N2 (WT)” value in series [1] amounted to 25.0 ± 5.71. Also, the “HCR O2/N2 (CYPOR)” value in series [2] turned out to be 108.7 ± 8.88. Besides, the IC50 in series [2] (setting [5]) came to 1.1 ± 0.16 µM. The 50% inhibitory concentration (IC50) in series [2] (setting [6]) amounted to 120 ± 6.48 µM.
